These results are taken from patent US20230051589A1, “COMPOUNDS AND COMPOSITIONS FOR TREATING CONDITIONS ASSOCIATED WITH NLRP ACTIVITY” (Novartis AG, priority 2018, published 2023).

Broadly, the IC50 is the concentration at which inhibition is half-maximal.

In the assay the test system is IL-1β production in PMA-differentiated THP-1 cells. Put plainly: IL-1β production in PMA-differentiated THP-1 cells stimulated with gramicidin (hTHP-1 assay, 2% fetal bovine serum; Procedures 1-3). The assay is classed as cell-based, human. The settings on record: Table B3; hTHP-1 assay containing 2% fetal bovine serum, gramicidin stimulation, IL-1β readout; read-out: hTHP-1 IC50. A digest of the protocol:
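PMA-primed THP-1 cells (20 ng/ml PMA, 16-18 h) in RPMI with 2% FBS were pre-incubated with compounds for 1 h, from 100 μM downward in 3-fold steps (0.37% DMSO final), then stimulated with 5 μM gramicidin for 2 h. IL-1β in the supernatant was quantified by HTRF.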
For the compound `CC(C)n1nc(S(N)(=O)=NC(=O)Nc2c3c(cc4c2C(=O)CC4)CCC3)cc1C(C)(C)O` (single isomer, unassigned) [Example 805, (R) or (S)-5-(2-hydroxypropan-2-yl)-1-isopropyl-N′-((3-oxo-1,2,3,5,6,7-hexahydro-s-indacen-4-yl)carbamoyl)-1H-pyrazole-3-sulfonimidamide], the IC50 lay within 200 to 1000 nM. With `CC(C)n1nc(S(N)(=O)=NC(=O)Nc2c3c(cc4c2C(=O)CC4)CCC3)cc1C(C)(C)O` (single isomer, unassigned) [Example 806, (S) or (R)-5-(2-hydroxypropan-2-yl)-1-isopropyl-N′-((3-oxo-1,2,3,5,6,7-hexahydro-5-indacen-4-yl)carbamoyl)-1H-pyrazole-3-sulfonimidamide] the figure was above 30000 nM; with `CC(C)(O)c1nc(CO)c(S(N)(=O)=NC(=O)Nc2c3c(cc4c2C(=O)CC4)CCC3)s1` (single isomer, unassigned) [Example 807, (S) or (R)-4-(hydroxymethyl)-2-(2-hydroxypropan-2-yl)-N′-((3-oxo-1,2,3,5,6,7-hexahydro-s-indacen-4-yl)carbamoyl)thiazole-5-sulfonimidamide], 5000 to 30000 nM; with `CC(C)(O)c1nc(CO)c(S(N)(=O)=NC(=O)Nc2c3c(cc4c2C(=O)CC4)CCC3)s1` (single isomer, unassigned) [Example 808, (R) or (S)-4-(hydroxymethyl)-2-(2-hydroxypropan-2-yl)-N′-((3-oxo-1,2,3,5,6,7-hexahydro-s-indacen-4-yl)carbamoyl)thiazole-5-sulfonimidamide], 1000 to 5000 nM. The figure for `CN(C)CC(C)(C)c1ccc(S(N)(=O)=NC(=O)Nc2c3c(cc4c2CCC4)CCC3)cc1` (single isomer, unassigned) [Example 809, (R) or (S)-4-(1-(dimethylamino)-2-methylpropan-2-yl)-N′-((1,2,3,5,6,7-hexahydro-s-indacen-4-yl)carbamoyl)benzenesulfonimidamide] is 200 to 1000 nM. Take `CN(C)CC(C)(C)c1ccc(S(N)(=O)=NC(=O)Nc2c3c(cc4c2CCC4)CCC3)cc1` (single isomer, unassigned) [Example 810, (S) or (R)-4-(1-(dimethylamino)-2-methylpropan-2-yl)-N′-((1,2,3,5,6,7-hcxahydro-s-indaccn-4-yl)carbamoyl)benzenesulfonimidamide]: the IC50 was 5000 to 30000 nM. The figure for `CC(C)c1cnc(S(N)(=O)=NC(=O)Nc2c3c(cc4c2CCC4)CCC3)c(F)c1` (single isomer, unassigned) [Example 811, (R) or (S)-3-fluoro-N′-((1,2,3,5,6,7-hexahydro-s-indacen-4-yl)carbamoyl)-5-isopropylpyridine-2-sulfonimidamide] is 200 to 1000 nM; for `CC(C)c1cnc(S(N)(=O)=NC(=O)Nc2c3c(cc4c2CCC4)CCC3)c(F)c1` (single isomer, unassigned) [Example 812, (S) or (R)-3-fluoro-N′-((1,2,3,5,6,7-hexahydro-s-indacen-4-yl)carbamoyl)-5-isopropylpyridine-2-sulfonimidamide] it is 5000 to 30000 nM; for `CCn1ccc(S(N)(=O)=NC(=O)Nc2c3c(cc4c2CCC4)CCC3)n1` (single isomer, unassigned) [Example 813, (R) or (S)-1-ethyl-N′-((1,2,3,5,6,7-hexahydro-s-indacen-4-yl)carbamoyl)-1H-pyrazole-3-sulfonimidamide] it is 40 to 200 nM. The figure for `CCn1ccc(S(N)(=O)=NC(=O)Nc2c3c(cc4c2CCC4)CCC3)n1` (single isomer, unassigned) [Example 814, (S) or (R)-1-ethyl-N′-((1,2,3,5,6,7-hexahydro-s-indacen-4-yl)carbamoyl)-1H-pyrazole-3-sulfonimidamide] is 1000 to 5000 nM; for `C[C@](O)(CO)c1ncc(S(N)(=O)=NC(=O)Nc2c3c(cc4c2CC4)CCC3)s1` (single isomer, unassigned) [Example 815, (R) or (S)-2-((S)-1,2-dihydroxypropan-2-yl)-N′-((2,4,5,6-tetrahydro-1H-cyclobuta[f]inden-3-yl)carbamoyl)thiazole-5-sulfonimidamide] it is 8 to 40 nM; for `C[C@](O)(CO)c1ncc(S(N)(=O)=NC(=O)Nc2c3c(cc4c2CC4)CCC3)s1` (single isomer, unassigned) [Example 816, (S) or (R)-2-((S)-1,2-dihydroxypropan-2-yl)-N′-((2,4,5,6-tetrahydro-1H-cyclobuta[f]inden-3-yl)carbamoyl)thiazole-5-sulfonimidamide] it is 200 to 1000 nM. Turning to `C[C@@](O)(CO)c1ncc(S(N)(=O)=NC(=O)Nc2c3c(cc4c2CC4)CCC3)s1` (single isomer, unassigned) [Example 817, (R) or (S)-2-((R)-1,2-dihydroxypropan-2-yl)-N′-((2,4,5,6-tetrahydro-1H-cyclobuta[f]inden-3-yl)carbamoyl)thiazole-5-sulfonimidamide], the IC50 is 8 to 40 nM. The figure for `C[C@@](O)(CO)c1ncc(S(N)(=O)=NC(=O)Nc2c3c(cc4c2CC4)CCC3)s1` (single isomer, unassigned) [Example 818, (S) or (R)-2-((R)-1,2-dihydroxypropan-2-yl)-N′-((2,4,5,6-tetrahydro-1H-cyclobuta[f]inden-3-yl)carbamoyl)thiazole-5-sulfonimidamide] is 200 to 1000 nM; for `C[C@@](O)(CO)c1ncc(S(N)(=O)=NC(=O)Nc2c3c(cc4c2C(=O)CC4)CCC3)s1` (single isomer, unassigned) [Example 819, (R) or (S) -2-((R)-1,2-dihydroxypropan-2-yl)-N′-((3-oxo-1,2,3,5,6,7-hexahydro-s-indacen-4-yl)carbamoyl)thiazole-5-sulfonimidamide] it is 200 to 1000 nM; for `C[C@@](O)(CO)c1ncc(S(N)(=O)=NC(=O)Nc2c3c(cc4c2C(=O)CC4)CCC3)s1` (single isomer, unassigned) [Example 820, (S) or (R)-2-((R)-1,2-dihydroxypropan-2-yl)-N′-((3-oxo-1,2,3,5,6,7-hexahydro-s-indacen-4-yl)carbamoyl)thiazole-5-sulfonimidamide] it is 5000 to 30000 nM. With `NS(=O)(=NC(=O)Nc1c2c(cc3c1CCC3)CCC2)c1ccc([C@@H]2CCCN2)s1` (single isomer, unassigned) [Example 821, (R) or (S) -N′-((1,2,3,5,6,7-hexahydro-s-indacen-4-yl)carbamoyl)-5-((S)-pyrrolidin-2-yl)thiophene-2-sulfonimidamide] the figure was 200 to 1000 nM. With `NS(=O)(=NC(=O)Nc1c2c(cc3c1CCC3)CCC2)c1ccc([C@@H]2CCCN2)s1` (single isomer, unassigned) [Example 822, (S) or (R) -N′-((1,2,3,5,6,7-hexahydro-s-indacen-4-yl)carbamoyl)-5-((S)-pyrrolidin-2-yl)thiophene-2-sulfonimidamide], the IC50 was 1000 to 5000 nM. For `NS(=O)(=NC(=O)Nc1c2c(cc3c1CCC3)CCC2)c1ccc([C@H]2CCCN2)s1` (single isomer, unassigned) [Example 823, (R) or (S) -N′-((1,2,3,5,6,7-hexahydro-s-indacen-4-yl)carbamoyl)-5-((R)-pyriolidin-2-yl)thiophene-2-sulfonimidamide], the IC50 lay within 200 to 1000 nM.
